# Data taken from the supplement of paper PMC10307832.
# Assays:
# Experiment in all cases: relative viability (nuclei count vs DMSO), 5 days (fraction); higher = more cells survive
# Zosuquidar + Tozasertib = compound: O[C@@H](COc1cccc2ncccc12)CN1CCN([C@@H]2c3ccccc3[C@@H]3[C@H](c4ccccc42)C3(F)F)CC1 [Zosuquidar] + Cc1cc(Nc2cc(N3CCN(C)CC3)nc(Sc3ccc(NC(=O)C4CC4)cc3)n2)n[nH]1 [Tozasertib] (partner 0.1 µM)
# Method in brief: (§1)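 Nuclei were stained with Hoechst during a one-step fixation (final 0.05% Triton X-100, 1% formaldehyde, 1 ug/ml Hoechst) carried out 5 days after dosing, then counted on 4× images. The cells, lung cancer lines in 1536-well plates, had been dosed by pin tool the day after seeding with one drug alone or a fixed anchor-drug dose plus five library-drug doses (not always all listed) in √10 steps. Relative viability is the nuclei count in treated wells divided by that in vehicle wells, and each value is the median of duplicate plates.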
# Kobe2602 + Foretinib = compound: C1=CC(=CC=C1NC(=S)NNC2=C(C=C(C=C2[N+](=O)[O-])C(F)(F)F)[N+](=O)[O-])F [Kobe2602] + COc1cc2c(Oc3ccc(NC(=O)C4(C(=O)Nc5ccc(F)cc5)CC4)cc3F)ccnc2cc1OCCCN1CCOCC1 [Foretinib] (partner 0.25 µM)
# Method in brief: as §1
# [1] = compound: COc1cc2nccc(Oc3ccc(NC(=O)C4(C(=O)Nc5ccc(F)cc5)CC4)cc3)c2cc1OC [Cabozantinib] + Nc1nc2[nH]cc(CCc3ccc(C(=O)N[C@@H](CCC(=O)O)C(=O)O)cc3)c2c(=O)[nH]1 [Pemetrexed] (partner 0.2 µM)
# Method in brief: as §1
# Zosuquidar + Decitabine = compound: O[C@@H](COc1cccc2ncccc12)CN1CCN([C@@H]2c3ccccc3[C@@H]3[C@H](c4ccccc42)C3(F)F)CC1 [Zosuquidar] + Nc1ncn([C@H]2C[C@H](O)[C@@H](CO)O2)c(=O)n1 [Decitabine] (partner 2 µM)
# Method in brief: as §1
Cell Line,relative viability (Zosuquidar + Tozasertib; first compound 0.01 µM),relative viability (Zosuquidar + Tozasertib; first compound 0.03162 µM),relative viability (Zosuquidar + Tozasertib; first compound 0.1 µM),relative viability (Zosuquidar + Tozasertib; first compound 0.3162 µM),relative viability (Zosuquidar + Tozasertib; first compound 1 µM),relative viability (Kobe2602 + Foretinib; first compound 0.2 µM),relative viability (Kobe2602 + Foretinib; first compound 0.6325 µM),relative viability (Kobe2602 + Foretinib; first compound 2 µM),relative viability (Kobe2602 + Foretinib; first compound 6.325 µM),relative viability (Kobe2602 + Foretinib; first compound 20 µM),relative viability ([1]; first compound 0.02 µM),relative viability ([1]; first compound 0.06325 µM),relative viability ([1]; first compound 0.2 µM),relative viability ([1]; first compound 0.6325 µM),relative viability ([1]; first compound 2 µM),relative viability (Zosuquidar + Decitabine; first compound 0.01 µM),relative viability (Zosuquidar + Decitabine; first compound 0.03162 µM),relative viability (Zosuquidar + Decitabine; first compound 0.1 µM),relative viability (Zosuquidar + Decitabine; first compound 0.3162 µM),relative viability (Zosuquidar + Decitabine; first compound 1 µM)
NCI-H358,0.109,0.12,0.093,0.1,0.0956,0.721,0.756,0.605,0.698,0.845,0.181,0.171,0.16,0.18,0.166,0.23,0.194,0.214,0.255,0.19
NCI-H2085,0.852,0.886,0.778,0.835,0.856,0.909,1.01,–,1.12,0.879,0.9,0.974,0.737,0.866,0.744,0.556,0.586,–,0.653,0.55
NCI-H2405,0.774,0.762,0.724,0.747,0.74,1.05,1.04,1.01,1.06,1.07,0.818,1.13,1.08,1.09,1.02,0.737,0.777,0.734,0.767,0.758
201T,0.876,0.907,0.888,0.993,0.854,1.16,1.17,1.04,0.946,0.93,0.311,0.351,0.305,0.336,0.313,0.848,0.858,0.837,0.867,0.864
NCI-H1755,0.541,0.634,0.535,0.634,0.564,0.948,0.914,0.915,0.879,0.868,0.449,0.415,0.436,0.425,0.422,0.672,0.663,0.716,0.728,0.708
NCI-H650,0.795,0.748,0.739,0.803,0.791,1.1,1.01,1.05,1.05,0.907,0.792,1.07,0.964,0.941,0.916,0.292,0.369,0.387,0.398,0.376
NCI-H1651,0.603,0.607,0.782,0.627,0.623,0.764,0.89,0.762,0.776,0.868,0.498,0.732,0.588,0.497,0.544,0.644,0.685,0.483,0.617,0.588
NCI-H1437,0.41,0.408,0.424,0.396,0.381,1.28,1.28,1.15,1.23,1.09,0.307,0.35,0.316,0.307,0.256,0.567,0.561,0.644,0.56,0.592
NCI-H1975,0.74,0.775,1.01,0.803,0.787,0.99,0.915,0.788,0.823,0.931,0.318,0.273,0.288,0.263,0.289,0.4,0.402,0.423,0.411,0.547
BEN,0.482,0.489,0.503,0.563,0.431,0.591,0.706,0.738,0.58,0.768,0.65,0.914,0.781,0.851,0.698,0.695,0.664,0.659,0.822,0.787
NCI-H460,0.335,0.474,0.671,0.476,0.323,1.07,1,0.978,1.02,0.999,0.0695,0.0609,0.0626,0.0622,0.0696,0.459,0.448,0.335,0.55,0.44
NCI-H1944,0.244,0.24,0.254,0.243,0.248,0.891,0.91,0.847,0.885,0.976,0.601,0.645,0.631,0.637,0.696,0.365,0.454,0.469,0.453,0.439
HOP-62,0.363,0.312,0.396,0.341,0.308,1.08,1.16,1.18,1.1,1.08,0.271,0.364,0.34,0.336,0.3,0.215,0.223,0.25,0.203,0.21
HCC-366,0.153,0.395,0.195,0.121,0.102,0.945,0.969,0.966,0.919,0.959,0.189,0.214,0.173,0.156,0.15,0.322,0.291,0.429,0.515,0.277
NCI-H3122,0.396,0.391,–,0.466,0.379,0.969,0.88,0.967,0.925,0.967,0.212,0.203,0.195,0.199,0.209,0.394,0.449,0.417,0.508,0.457
NCI-H1650,0.43,0.426,0.478,0.469,0.371,0.998,1.31,0.962,1.09,1.59,0.441,0.435,0.337,0.355,0.374,0.451,0.439,0.553,0.398,0.378
NCI-H1355,0.527,0.542,0.623,0.612,0.519,0.953,0.945,0.921,0.933,0.95,1.05,1.12,1.04,1.07,1.06,0.388,0.393,0.355,0.382,0.401
NCI-H2170,0.788,0.733,0.825,0.622,0.738,0.966,1.04,1.01,1.01,0.963,0.28,0.264,0.247,0.274,0.311,0.451,0.476,0.482,0.466,0.512
NCI-H1734,0.263,0.254,0.243,0.268,0.263,0.843,0.938,0.978,0.901,0.855,0.396,0.435,0.413,0.445,0.397,0.522,0.537,0.525,0.456,0.565
LXF-289,0.244,0.2,0.179,0.222,0.187,0.959,0.943,0.984,0.941,1.01,0.957,0.953,0.868,0.883,0.897,0.357,0.364,0.367,0.418,0.403
SK-LU-1,0.292,0.359,0.417,0.353,0.332,0.78,0.911,0.81,0.834,0.872,1.1,1.1,0.9,0.926,0.9,0.652,0.66,0.684,0.679,0.638
NCI-H2087,0.266,–,0.27,0.228,0.218,1.09,1.18,1.07,1.11,1.18,0.612,0.711,0.614,0.752,0.665,0.262,0.3,0.305,0.206,0.33
SK-MES-1,0.797,1.01,0.97,0.942,0.857,0.922,0.99,0.918,0.99,0.898,1.02,1.01,1,0.904,0.937,0.343,0.36,0.347,0.422,0.402
HCC-78,0.413,0.329,–,0.44,0.398,0.628,0.541,0.669,0.575,0.577,–,0.941,0.908,0.926,0.89,0.75,–,–,0.804,0.637
NCI-H1793,0.345,0.534,–,0.393,0.376,0.847,0.803,0.684,0.728,0.863,0.865,0.917,–,0.73,0.588,0.536,–,–,0.648,0.488
H3255,0.734,0.737,0.718,0.711,0.604,0.946,0.834,0.784,0.882,0.944,0.52,0.646,–,0.57,0.575,0.559,0.592,0.497,0.696,0.716
HCC-15,0.257,0.323,0.416,0.223,0.321,0.979,1.09,0.974,1.09,0.974,0.231,0.228,0.226,0.223,0.215,0.64,0.575,0.599,0.711,0.635
